± gives the expanded uncertainty stated by the source.
Conditions: 100 kPa, Liquid; for viscosity: Concentric cylinders viscometry; for mass density: Vibrating tube method

CCO [ethanol]
Conditions	mass density [kg/m3]	viscosity [mPa·s]
293.15 K	790.7 ± 3	1.23 ± 0.05
303.15 K	782.2 ± 3	1.02 ± 0.04
313.15 K	773.4 ± 3	0.85 ± 0.04
323.15 K	760.1 ± 3	0.71 ± 0.03
